Values after ≈ are worked out from the molar mass of the structure shown. Values joined by “and” are separate entries in the source; they are usually repeats but may differ in a detail not shown here. Equal entries are not always repeated. Blank lines part the entries; values can stand above or below the compound they belong to.
How the values were obtained:
Assay in all cases: ≥ marks a high value that may be exact or a test limit, other limits are often not marked, values filed in µg/mL are converted to µM
[1] = system: Salmonella enterica subsp. enterica serovar Typhimurium ATCC 14028
[2] = system: Staphylococcus aureus ATCC 6538
[3] = system: Escherichia coli ATCC 11219
[4] = system: Klebsiella pneumoniae ATCC 10031
[5] = system: Pseudomonas aeruginosa ATCC 13388
[6] = system: Staphylococcus aureus ATCC 25923
[7] = system: Bacillus cereus ATCC 11778
[8] = system: Escherichia coli ATCC 35218
[9] = system: Pseudomonas aeruginosa ATCC 9027
[10] = system: Xanthomonas vesicatoria DSM 50861
Cladosporium herbarum = system: Cladosporium herbarum
[11] = system: Clavibacter michiganensis subsp. michiganensis DSM 46294
[12] = system: Pseudomonas corrugata DSM 7228
Botrytis cinerea = system: Botrytis cinerea
[13] = system: Pseudomonas syringae pv. syringae DSM 10604
[14] = system: Pectobacterium carotovorum subsp. carotovorum DSM 30168
[15] = system: Pseudomonas syringae pv. tomato DC3000
Alternaria alternata = system: Alternaria alternata
[16] = system: Escherichia coli ATCC 25922
[17] = system: Xanthomonas axonopodis pv. glycines ISBF 327
[18] = system: Klebsiella pneumoniae ATCC 13883
[19] = system: Salmonella enterica subsp. enterica serovar Enteritidis ATCC 13076
[20] = system: Staphylococcus aureus ATCC 43300
[21] = system: Staphylococcus aureus ATCC BAA-39
[22] = system: Listeria monocytogenes ATCC 19115
Cupriavidus necator H16 = system: Cupriavidus necator H16
[23] = system: Escherichia coli BL21(DE3)
[24] = system: Pseudomonas putida GPp104
Escherichia coli JM109 = system: Escherichia coli JM109

MIC [1]: > 50 µM | MIC [2]: 5 µM (≈ 6.42 µg/mL) | MIC [3]: ≥ 50 µM | MIC [4]: 20 µM (≈ 25.7 µg/mL) | MIC [5]: ≥ 50 µM
SMILES: CC[C@H](C)[C@H](NC(=O)CN)C(=O)N[C@@H](Cc1cnc[nH]1)C(=O)N[C@@H](CC(=O)O)C(=O)N[C@H](C(=O)N[C@@H](C)C(=O)N[C@@H](CCCCN)C(=O)N[C@@H](Cc1ccc(O)cc1)C(=O)NCC(=O)N[C@@H](CCCCN)C(=O)N1CCC[C@H]1C(=O)N[C@@H](CO)C(N)=O)[C@@H](C)CC [GIHDIAKYGKPS]

MIC [6]: > 50 µM | MIC [7]: ≥ 50 µM | MIC [8]: ≥ 50 µM | MIC [9]: > 50 µM
SMILES: CC(C)C[C@H](NC(=O)[C@@H](NC(=O)[C@H](CCCCN)NC(=O)[C@@H](N)CCCCN)C(C)C)C(=O)N[C@@H](CCCCN)C(=O)N[C@@H](C)C(=O)N[C@@H](C)C(=O)N[C@@H](C)C(N)=O [KKVLKAAA]

MIC [10]: 8.62 µM (≈ 20 µg/mL) | MIC (Cladosporium herbarum): 17.2 µM (≈ 40 µg/mL) | MIC [11]: 1.08 µM (≈ 2.5 µg/mL) | MIC [12]: 17.2 µM (≈ 40 µg/mL) | MIC (Botrytis cinerea): ≥ 43.1 µM | MIC [13]: 17.2 µM (≈ 40 µg/mL) | MIC [14]: 17.2 µM (≈ 40 µg/mL) | MIC [15]: 17.2 µM (≈ 40 µg/mL) | MIC (Alternaria alternata): ≥ 43.1 µM
SMILES: CC[C@H](C)[C@H](NC(=O)[C@H](CC(C)C)NC(=O)[C@H](CCCCN)NC(=O)[C@H](CCCN=C(N)N)NC(=O)[C@@H](N)CCCCN)C(=O)N[C@@H](Cc1ccccc1)C(=O)N[C@@H](CC(C)C)C(=O)N[C@@H](C)C(=O)N[C@@H](C)C(=O)N[C@@H](Cc1ccccc1)C(=O)N[C@@H](CC(C)C)C(=O)N[C@@H](C)C(=O)N[C@@H](C)C(=O)N[C@@H](CC(C)C)C(=O)N[C@@H](C)C(=O)N[C@@H](CC(C)C)C(=O)N[C@@H](Cc1ccccc1)C(=O)N[C@@H](CCCCN)C(=O)N[C@@H](CCCCN)C(=O)N[C@@H](CCCN=C(N)N)C(N)=O [KRKLIFLAAFLAALALFKKR]

MIC [16]: 14 µM (≈ 32.9 µg/mL) | MIC [17]: 2 µM (≈ 4.7 µg/mL)
SMILES: CC(C)C[C@H](NC(=O)[C@H](CCC(N)=O)NC(=O)[C@H](CCCN=C(N)N)NC(=O)[C@H](CC(C)C)NC(=O)[C@H](CC(C)C)NC(=O)[C@@H](NC(=O)[C@H](CC(C)C)NC(=O)[C@@H](NC(=O)[C@H](CCCN=C(N)N)NC(=O)[C@H](CCCN=C(N)N)NC(=O)[C@H](CCCCN)NC(=O)[C@H](C)NC(=O)[C@@H](N)CC(C)C)C(C)C)[C@@H](C)O)C(=O)N[C@@H](CCCN=C(N)N)C(=O)N[C@@H](CCCN=C(N)N)C(=O)N[C@H](C(=O)N[C@@H](CO)C(=O)N1CCC[C@H]1C(=O)N[C@@H](CO)C(=O)N[C@@H](CO)C(N)=O)C(C)C [LAKRRVLTLLRQLRRVSPSS]

MIC [17]: ≥ 42 µM
SMILES: CC[C@H](C)[C@H](NC(=O)[C@H](C)NC(=O)[C@@H]1CCCN1C(=O)[C@H](CCCN=C(N)N)NC(=O)[C@@H](N)CC(C)C)C(=O)N[C@@H](CC(C)C)C(=O)N[C@H](C(=O)N[C@@H](CCCN=C(N)N)C(=O)N[C@H](C(=O)N[C@@H](CCCCN)C(=O)NCC(=O)N[C@@H](CCCCN)C(=O)NCC(=O)N[C@@H](CC(C)C)C(N)=O)C(C)C)C(C)C [LRPAILVRVKGKGL]

MIC [6]: 8 µM and 16 µM | MIC [18]: 8 µM and 16 µM | MIC [19]: 4 µM and 5.66 µM | MIC [16]: 16 µM (≈ 30.4 µg/mL) | MIC [20]: 5.66 µM and 16 µM | MIC [21]: 5.66 µM and 16 µM | MIC [22]: 5.66 µM and 11.3 µM
SMILES: CC[C@H](C)[C@H](NC(=O)[C@H](CCCCN)NC(=O)[C@H](CCCN=C(N)N)NC(=O)[C@H](CC(C)C)NC(=O)[C@H](Cc1ccccc1)NC(=O)[C@H](CCCN=C(N)N)NC(=O)CNC(=O)[C@H](Cc1ccccc1)NC(=O)[C@H](CCCN=C(N)N)NC(=O)CNC(=O)[C@H](CCCN=C(N)N)NC(=O)[C@H](CCC(N)=O)NC(=O)[C@@H](NC(=O)[C@@H](N)CC(C)C)C(C)C)C(=O)N[C@@H](CCCN=C(N)N)C(=O)O [LVQRGRFGRFLRKIR]

MIC (Cupriavidus necator H16): 25 µM (≈ 53.4 µg/mL) | MIC [23]: 0.313 µM (≈ 0.668 µg/mL) | MIC [24]: 6.25 µM (≈ 13.3 µg/mL) | MIC (Escherichia coli JM109): 6.25 µM (≈ 13.3 µg/mL)
SMILES: CC[C@H](C)[C@H](NC(=O)[C@H](Cc1ccc(O)cc1)NC(=O)[C@@H](NC(=O)[C@@H]1CCCN1C(=O)[C@H](CCCN=C(N)N)NC(=O)[C@@H](NC(=O)CNC(=O)[C@@H](N)CCCN=C(N)N)C(C)C)C(C)C)C(=O)N1CCC[C@H]1C(=O)N[C@@H](CCC(N)=O)C(=O)N1CCC[C@H]1C(=O)N[C@@H](CCCN=C(N)N)C(=O)N1CCC[C@H]1C(=O)N1CCC[C@H]1C(=O)N[C@@H](Cc1cnc[nH]1)C(=O)N1CCC[C@H]1C(=O)N[C@@H](CCCN=C(N)N)C(=O)N[C@@H](CC(C)C)C(=O)O [RGVRPVYIPQPRPPHPRL]

MIC [10]: 26.6 µM (≈ 40 µg/mL) | MIC (Cladosporium herbarum): 26.6 µM (≈ 40 µg/mL) | MIC [11]: 13.3 µM (≈ 20 µg/mL) | MIC [12]: 26.6 µM (≈ 40 µg/mL) | MIC (Botrytis cinerea): ≥ 66.4 µM | MIC [13]: 26.6 µM (≈ 40 µg/mL) | MIC [14]: 26.6 µM (≈ 40 µg/mL) | MIC [15]: 3.32 µM (≈ 5 µg/mL) | MIC (Alternaria alternata): ≥ 66.4 µM
SMILES: CC(C)[C@H](NC(=O)[C@H](C)NC(=O)[C@H](CCCN=C(N)N)NC(=O)[C@H](CCCCN)NC(=O)[C@H](C)NC(=O)[C@H](Cc1ccccc1)NC(=O)[C@H](CCCN=C(N)N)NC(=O)[C@H](C)NC(=O)[C@H](Cc1ccccc1)NC(=O)[C@H](CCCN=C(N)N)NC(=O)[C@H](CCCCN)NC(=O)[C@@H](N)CCCN=C(N)N)C(N)=O [RKRFARFAKRAV]

MIC (Cupriavidus necator H16): ≥ 50 µM | MIC [23]: 1.25 µM (≈ 2.74 µg/mL) | MIC [24]: 12.5 µM (≈ 27.4 µg/mL) | MIC (Escherichia coli JM109): 25 µM (≈ 54.7 µg/mL)
SMILES: CC[C@H](C)[C@H](NC(=O)[C@H](Cc1ccc(O)cc1)NC(=O)[C@@H](NC(=O)[C@@H]1CCCN1C(=O)[C@H](CCCN=C(N)N)NC(=O)[C@@H]1CCCN1C(=O)[C@H](CC(C)C)NC(=O)[C@@H](N)CCCN=C(N)N)C(C)C)C(=O)N1CCC[C@H]1C(=O)N[C@@H](CCC(N)=O)C(=O)N1CCC[C@H]1C(=O)N[C@@H](CCCN=C(N)N)C(=O)N1CCC[C@H]1C(=O)N1CCC[C@H]1C(=O)N[C@@H](Cc1cnc[nH]1)C(=O)N1CCC[C@H]1C(=O)N[C@@H](CCCN=C(N)N)C(=O)N[C@@H](CC(C)C)C(=O)O [RLPRPVYIPQPRPPHPRL]

MIC [6]: 2.83 µM and 4 µM | MIC [18]: 4 µM (≈ 8.13 µg/mL) | MIC [19]: 4 µM (≈ 8.13 µg/mL) | MIC [16]: 5.66 µM and 8 µM | MIC [20]: 2 µM and 4 µM | MIC [21]: 4 µM (≈ 8.13 µg/mL) | MIC [22]: 2.83 µM and 4 µM
SMILES: CC[C@H](C)[C@H](NC(=O)[C@@H](NC(=O)[C@@H](NC(=O)[C@@H](NC(=O)[C@@H](NC(=O)[C@H](CCCCN)NC(=O)[C@@H]1CCCN1C(=O)[C@H](CCCN=C(N)N)NC(=O)[C@H](Cc1ccccc1)NC(=O)[C@H](CCCN=C(N)N)NC(=O)[C@@H](N)CCCN=C(N)N)C(C)C)[C@@H](C)O)[C@@H](C)CC)[C@@H](C)O)C(=O)N[C@@H](CCC(N)=O)C(=O)NCC(=O)N[C@@H](CO)C(=O)N[C@@H](C)C(=O)N[C@@H](CCCN=C(N)N)C(=O)N[C@@H](Cc1ccccc1)C(=O)O [RRFRPKVTITIQGSARF]

MIC [1]: 10 µM (≈ 16.3 µg/mL) | MIC [2]: 4 µM (≈ 6.53 µg/mL) | MIC [3]: 10 µM (≈ 16.3 µg/mL) | MIC [4]: 20 µM (≈ 32.7 µg/mL) | MIC [5]: 4 µM (≈ 6.53 µg/mL)
SMILES: CC[C@H](C)[C@H](NC(=O)CNC(=O)[C@@H](N)Cc1c[nH]c2ccccc12)C(=O)N[C@@H](CCCN=C(N)N)C(=O)N[C@@H](CCCN=C(N)N)C(=O)N[C@H](C(=O)N[C@@H](CC(C)C)C(=O)N[C@@H](CCCCN)C(=O)N[C@@H](Cc1ccc(O)cc1)C(=O)NCC(=O)N[C@@H](CCCCN)C(=O)N[C@@H](CCCN=C(N)N)C(=O)N[C@@H](CO)C(=O)O)[C@@H](C)CC [WGIRRILKYGKRS]
